Patent US20210107886A1, “PREPARATION OF CYCLIC ACETALS FOR FUEL” (TRIAD NATIONAL SECURITY, LLC, priority 2019, published 2021)
Read-outs that look alike come from different tables or passages of the source.

Legend:
[1] = Kinematic viscosity (Anton Paar SVM 3001); assay type: physicochemical; details: 40° C.
Description: (§1) All chemicals and reagent grade solvents were obtained from commercial vendors and were used as received. ^1H and ^13C NMR spectra were obtained at room temperature on a Bruker AV400 MHz spectrometer, with chemical shifts (6) referenced to the residual solvent signal (^1H and ^13C). GC/MS analysis was carried out using a Hewlett-Packard 6890 GC system equipped with a Hewlett-Packard 5973 mass selective detector. FT-IR measurements were collected on a Perkin Elmer Spectrum Two FT-IR, where a drop of compound was pressed between two KBr plates. FTIR shifts were: very strong (vs), strong (s), medium (m), and weak (w). Combustion calorimeter measurements were performed using an IKA C1 compact combustion calorimeter, the NHOC was calculated by taking into consideration the hydrogen content and subtracting from the gross heat of combustion. DSC measurements were performed using a Netzsch DCS 204 F1 Phoenix. Viscosity and density measurements were performed using an Anton Paar SVM 3001. Elemental analysis was performed by Atlantic Microlabs. YSI measurements were conducted at Yale University.
The physical properties of the five distinct dioxolanes obtained were analyzed to understand their potential as suitable fuel components.^4-5, 8, 16, 18-20 A tabulated summary of these properties are provided in Table 2. The first metric considered was viscosity. […] If a fuel's viscosity falls outside of the ASTM D 975 specification (>4 mm^2 s^−1), it often leads to poor atomization of the fuel, which results in poor combustion and a subsequent loss of power and decrease in fuel economy.^7 In this respect, compounds 1-5 could be used to thin biodiesel to meet standards for petroleum diesel.

Flash point = assay type: physicochemical
[2] = Net heat of combustion (combustion calorimeter); assay type: physicochemical
Description: as §1
(§2) Two additional factors to consider for diesel fuel formulation are density and net heat of combustion (NHOC). Typically, for a chemical compound to be able to be blended with diesel, it should not decrease the density of the fuel mixture below 0.82 g mL-^1, as the energy content of the fuel brought into the engine is dependent on the density of the fuel.^17, 25 Compounds 1-5 maintained densities slightly higher than that of biodiesel, H1-H3, and petroleum diesel. A related metric is the NHOC, which is a measure of the energy contained in a given quantity of a compound. Additionally reported in Table 2 is the lower heating value (LHV) of compounds 1-5. The LHV of a fuel is defined as the amount of heat released by combusting a specified quantity (initially at 25° C.) and returning the temperature of the combustion products to 150° C., which assumes the latent heat of vaporization of water in the reaction products is not recovered.

Water solubility = assay type: physicochemical
[3] = Density (Anton Paar SVM 3001); assay type: physicochemical; details: 25° C.
Description: as §1, §2

[4] = Lower heating value (LHV); assay type: physicochemical
From the text: as §2

Boiling point = assay type: physicochemical
[5] = Cloud point of dioxolane blends with 7-component surrogate diesel; assay type: physicochemical
Description: The dioxolanes were blended in percentages of 10%, 20%, or 30% with a 7-component surrogate diesel.
The values range from −9.9° C. to −13.3° C. The numbers of the samples correspond with the dioxolanes as-referenced in FIG. 30. Cloud point is a quality specification for diesel fuels. This is an indicator of the tendency of a fuel to form wax crystals when cold. These crystals can clog the atomizer that injects fuel into the combustion chamber of a diesel engine. Cloud point specifications are a maximum temperature. A material with lower cloud point is more desirable.

[6] = 40° C.; taken from references; cited from earlier work
[7] = taken from references, cited from earlier work; for Freezing/MP: freezing point: first value of cell; for Freezing/MP: melting point: second value of cell
[8] = 25° C.; taken from references; cited from earlier work
[9] = taken from references; cited from earlier work
[10] = 10% dioxolane in 7-component surrogate diesel (surrogate alone −10.5 ° C.)
[11] = 20% dioxolane in 7-component surrogate diesel (surrogate alone −10.5 ° C.)
[12] = 30% dioxolane in 7-component surrogate diesel (surrogate alone −10.5 ° C.)

| Viscosity [1] | Flash Point (Flash point) | NHOC (net heat of combustion) [2] | solubility (Water solubility) | Density [3] | LHV (lower heating value) [4] | Boiling Point (Boiling point) | Cloud point of blend [5, 10] | Cloud point of blend [5, 11] | Cloud point of blend [5, 12] | Compound | Viscosity [6] | Freezing/MP: freezing point [7] | Freezing/MP: melting point [7] | Density [8] | NHOC (net heat of combustion) [9] |
| --- | --- | --- | --- | --- | --- | --- | --- | --- | --- | --- | --- | --- | --- | --- | --- |
| 0.94 mm^2 s^−1 | 42.5 °C | 27.67 mJ/L | < 40 µg/mL | 0.894 g/mL | 30.95 mJ/kg | 161 °C | −11.5 °C | −12 °C | −13.3 °C | CCCC1OC(C)C(C)O1 (centres unmarked) [Compound 3, 4,5-Dimethyl-2-propyl-1,3-dioxolane] | – | – | – | – | – |
| 1.88 mm^2 s^−1 | 58.3 °C | 30.41 mJ/L | < 40 µg/mL | 0.885 g/mL | 34.36 mJ/kg | 184 °C | −10.3 °C | −10.8 °C | −12.5 °C | CCCCC(CC)C1OC(C)C(C)O1 (centres unmarked) [Compound 2, 2-(1-Ethylpentyl)-4,5-dimethyl-1,3-dioxolane] | – | – | – | – | – |
| 2.34 mm^2 s^−1 | 79.5 °C | 30.06 mJ/L | < 40 µg/mL | 0.883 g/mL | 34.04 mJ/kg | 188 °C | −9.9 °C | −10.8 °C | −11.6 °C | CCCCCCCC1OC(C)C(C)O1 (centres unmarked) [Compound 5, 4,5-Dimethyl-2-heptyl-1,3-dioxolane] | – | – | – | – | – |
| – | – | – | – | – | – | – | – | – | – | CCCCCCCCCCCC1(C)OCC(C)O1 (centres unmarked) [H2, 2,4-dimethyl-2-undecyl-1,3-dioxolane] | 5.15 mm^2 s^−1 | −48 °C | −14 °C | 0.872 g/mL | 31.99 mJ/L |
| 1.49 mm^2 s^−1 | 69.5 °C | 29.20 mJ/L | < 40 µg/mL | 0.887 g/mL | 32.92 mJ/kg | 177 °C | −10.1 °C | −10.8 °C | −10.4 °C | CCCCCC1OC(C)C(C)O1 (centres unmarked) [Compound 4, 4,5-Dimethyl-2-pentyl-1,3-dioxolane] | – | – | – | – | – |
| 1.26 mm^2 s^−1 | 54.4 °C | 29.45 mJ/L | < 40 µg/mL | 0.893 g/mL | 32.98 mJ/kg | 174 °C | −10.3 °C | −10.8 °C | −10.8 °C | CCC(CC)C1OC(C)C(C)O1 (centres unmarked) [Compound 1, 2-(1-Ethylpropyl)-4,5-dimethyl-1,3-dioxolane] | – | – | – | – | – |
| – | – | – | – | – | – | – | – | – | – | CCCCCCCCCCCC1(C)OC(C)C(C)O1 (centres unmarked) [H1, 2,4,5-trimethyl-2-undecyl-1,3-dioxolane] | 4.44 mm^2 s^−1 | −51 °C | −18 °C | 0.868 g/mL | 31.99 mJ/L |
| – | – | – | – | – | – | – | – | – | – | CCCCCCCCCCCC1(C)OCCO1 [H3, 2-methyl-2-undecyl-1,3-dioxolane] | 4.98 mm^2 s^−1 | −25 °C | 0 °C | 0.883 g/mL | 32.28 mJ/L |
